Source: patent publication US9987237B2, “Methods and devices for using isoperillyl alcohol” (NEONC TECHNOLOGIES INC., priority 2010, dated 2018)

Columns and labels:
Kras = test: Western blot for Kras expression in U251 glioma cells; assay type: cell-based, human; settings: 500 μM, 24 hours
Protocol: U251 glioma cells were treated with 500 μM Sigma POH, GLP POH or iso-POH (isoPOH65, isoPOH79) for 24 hours, then Western blot was performed.

[1] = system: glucose-regulatory protein 78 (GRP-78) and the apoptosis marker CHOP; test: Western blot for ER stress markers in U251 cells; assay type: cell-based, human; settings: U251 TMZ-sensitive and TMZ-resistant (U251-TR1, U251-TR2) cells, 1.5 mM, 18 hours
Protocol: U251 TMZ-sensitive and TMZ-resistant (U251-TR1, U251-TR2) cells were treated with Sigma POH (1.5 mM) or GLP POH (1.5 mM) for 18 hours, then Western blot was performed.

[2] = system: LN229 temozolomide-resistant cells; test: MTT cytotoxicity assay, LN229 temozolomide-resistant cells; assay type: cell-based, human; settings: 48 hours, FIG. 6B
From the text: (§1) J. of Immunological Methods 65: 55 63, 1983. The cytoxicity of the present compound may be studied by colony formation assay. […] Invasion inhibition may be studied by Boyden chambers. In this assay a layer of reconstituted basement membrane. […] In vitro cytotoxicity of iso-POH in temozolomide-sensitive or temozolomide-resistant cells were also studied. […] Similarly.

U251 human glioma cells = test: MTT cytotoxicity assay, U251 glioma cells; assay type: cell-based
From the text: (§2) J. of Immunological Methods 65: 55 63, 1983. The cytoxicity of the present compound may be studied by colony formation assay. […] Invasion inhibition may be studied by Boyden chambers. In this assay a layer of reconstituted basement membrane. […] Sigma POH is the POH purchased from Sigma Chemicals having a purity of about 96%. […] KWH0744 is the crude POH purchased from Wako having a purity of about 89.5%. […] In vitro cytotoxicity of iso-POH in temozolomide-sensitive or temozolomide-resistant cells were also studied. […] Similarly.

LN229 human glioma cells = test: MTT cytotoxicity assay, LN229 glioma cells; assay type: cell-based
From the text: as §2

U87 human glioma cells = test: MTT cytotoxicity assay, U87 glioma cells; assay type: cell-based; settings: U87 temozolomide sensitive, 48 hours, FIG. 7A
From the text: as §1

A172 human glioma cells = test: MTT cytotoxicity assay, A172 glioma cells; assay type: cell-based
From the text: as §2

[3] = system: A172 temozolomide-resistant cells; test: MTT cytotoxicity assay, A172 temozolomide-resistant cells; assay type: cell-based, human; settings: 48 hours, FIG. 4B
From the text: as §1

[4] = system: U251 temozolomide-resistant cells; test: MTT cytotoxicity assay, U251 temozolomide-resistant cells; assay type: cell-based, human; settings: 0 mM-3 mM
From the text: as §1

[5] = system: U87 temozolomide-resistant cells; test: MTT cytotoxicity assay, U87 temozolomide-resistant cells; assay type: cell-based, human; settings: 48 hours, FIG. 7B
From the text: as §1

SMILES | Kras expression (Kras) | endoplasmic reticulum (ER) stress [1] | expression of glucose-regulatory protein 78 (GRP-78) [1] | expression of the apoptosis marker CHOP [1] | cytotoxic response (MTT) [2] | cytotoxicity (MTT) (U251 human glioma cells; TMZ sensitive U251, 24 hours, 0 mM-3 mM, FIG. 8A) | cytotoxic response (MTT) (U251 human glioma cells; U251 temozolomide-sensitive, 48 hours, FIG. 5A) | cytotoxicity (MTT) (U251 human glioma cells; U1251 human glioma cells, FIG. 2, versus POH of different purity) | cytotoxicity (MTT) (LN229 human glioma cells; LN229 human glioma cells, FIG. 1, versus POH of different purity) | cytotoxic response (MTT) (LN229 human glioma cells; LN229 temozolomide sensitive, 48 hours, FIG. 6A) | cytotoxic response (MTT) (U87 human glioma cells) | cytotoxicity (MTT) (A172 human glioma cells; A172 human glioma cells, FIG. 3, versus POH of different purity) | cytotoxic response (MTT) (A172 human glioma cells; A172 temozolomide-sensitive, 48 hours, FIG. 4A, compared to GLP POH and Sigma POH) | cytotoxic response (MTT) [3] | cytotoxicity (MTT) ([4]; U251-TR1, 24 hours, FIG. 8C) | cytotoxicity (MTT) ([4]; U251-TR2, 24 hours, FIG. 8B) | cytotoxic response (MTT) [5]
C=C(C)[C@@H]1CC=C(CO)CC1 [Sigma POH, perillyl alcohol] | decreased Kras expression | increased endoplasmic reticulum (ER) stress | increased expression | increased expression |  |  |  |  |  |  |  |  |  |  |  |  | 
CC(C)=C1CC=C(CO)CC1 [iso-POH, (4-isopropylidene cyclohex-1-enyl)methanol] | decreased Kras expression | increased ER stress |  |  | same response | greater cytotoxicity | greatest response | much better cytotoxicity than POH with different purity | much better cytotoxicity than POH with different purity | same response | greatest response | much better cytotoxicity than POH with different purity | greatest cytotoxic response | response pattern was also seen | greater cytotoxicity | greater cytotoxicity | greatest response
